#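 How tested: cells in 96-well plates exposed to compound for 48 hours at five concentrations. Definition used: TGI = concentration required for complete inhibition of growth.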
# Assays:
# Assay in all cases: NCI-60 cell line screen, 48 h
# SN12C renal = tested on: SN12C renal
# SK-MEL-28 melanoma = tested on: SK-MEL-28 melanoma
# RPMI-8226 leukemia = tested on: RPMI-8226 leukemia
# BT-549 breast = tested on: BT-549 breast
# HCT-116 colon = tested on: HCT-116 colon
# A498 renal = tested on: A498 renal
# SK-OV-3 ovarian = tested on: SK-OV-3 ovarian
# HOP-92 NSCLC = tested on: HOP-92 NSCLC
# TK-10 renal = tested on: TK-10 renal
# DU-145 prostate = tested on: DU-145 prostate
# RXF 393 renal = tested on: RXF 393 renal
# SF-268 CNS = tested on: SF-268 CNS
# M14 melanoma = tested on: M14 melanoma
# PC-3 prostate = tested on: PC-3 prostate
# SK-MEL-5 melanoma = tested on: SK-MEL-5 melanoma
# KM12 colon = tested on: KM12 colon
# A549 NSCLC = tested on: A549 NSCLC
# SK-MEL-2 melanoma = tested on: SK-MEL-2 melanoma
# K-562 leukemia = tested on: K-562 leukemia
# OVCAR-8 ovarian = tested on: OVCAR-8 ovarian
# EKVX NSCLC = tested on: EKVX NSCLC
# MCF7 breast = tested on: MCF7 breast
# MDA-N = tested on: MDA-N
# ACHN renal = tested on: ACHN renal
# OVCAR-5 ovarian = tested on: OVCAR-5 ovarian
# NCI-H460 lung = tested on: NCI-H460 lung
# MDA-MB-231 breast = tested on: MDA-MB-231 breast
# 786-0 renal = tested on: 786-0 renal
# OVCAR-4 ovarian = tested on: OVCAR-4 ovarian
# IGROV1 ovarian = tested on: IGROV1 ovarian
# SR leukemia = tested on: SR leukemia
# T-47D breast = tested on: T-47D breast
# U251 CNS = tested on: U251 CNS
# LOX IMVI melanoma = tested on: LOX IMVI melanoma
# NCI/ADR-RES ovarian = tested on: NCI/ADR-RES ovarian
# UACC-257 melanoma = tested on: UACC-257 melanoma
# UO-31 renal = tested on: UO-31 renal
# SW-620 colon = tested on: SW-620 colon
# COLO 205 colon = tested on: COLO 205 colon
# NCI-H226 lung = tested on: NCI-H226 lung
# HT29 colon = tested on: HT29 colon
# MALME-3M melanoma = tested on: MALME-3M melanoma
# MDA-MB-435 = tested on: MDA-MB-435
# HOP-62 NSCLC = tested on: HOP-62 NSCLC
# HS 578T breast = tested on: HS 578T breast
# SNB-19 CNS = tested on: SNB-19 CNS
# HCC-2998 colon = tested on: HCC-2998 colon
# HCT-15 colon = tested on: HCT-15 colon
# HL-60(TB) leukemia = tested on: HL-60(TB) leukemia
# NCI-H23 lung = tested on: NCI-H23 lung
# SF-295 CNS = tested on: SF-295 CNS
# MOLT-4 leukemia = tested on: MOLT-4 leukemia
# SF-539 CNS = tested on: SF-539 CNS
# NCI-H522 lung = tested on: NCI-H522 lung
# CCRF-CEM leukemia = tested on: CCRF-CEM leukemia
# SNB-75 CNS = tested on: SNB-75 CNS
# CAKI-1 renal = tested on: CAKI-1 renal
# UACC-62 melanoma = tested on: UACC-62 melanoma
# OVCAR-3 ovarian = tested on: OVCAR-3 ovarian
structure (smiles),measurement,setting,value
CN(C)c1ccc(/C=C/c2nc3ccccc3s2)cc1,TGI,SN12C renal,> 100 µM
same,TGI,SK-MEL-28 melanoma,> 100 µM
same,TGI,RPMI-8226 leukemia,> 100 µM
same,TGI,BT-549 breast,> 100 µM
same,TGI,HCT-116 colon,> 100 µM
same,TGI,A498 renal,> 100 µM
same,TGI,SK-OV-3 ovarian,> 100 µM
same,TGI,HOP-92 NSCLC,> 100 µM
same,TGI,TK-10 renal,> 100 µM
same,TGI,DU-145 prostate,> 100 µM
same,TGI,RXF 393 renal,> 100 µM
same,TGI,SF-268 CNS,> 100 µM
same,TGI,M14 melanoma,> 100 µM
same,TGI,PC-3 prostate,> 100 µM
same,TGI,SK-MEL-5 melanoma,> 100 µM
same,TGI,KM12 colon,> 100 µM
same,TGI,A549 NSCLC,> 100 µM
same,TGI,SK-MEL-2 melanoma,> 100 µM
same,TGI,K-562 leukemia,> 100 µM
same,TGI,OVCAR-8 ovarian,> 100 µM
same,TGI,EKVX NSCLC,> 100 µM
same,TGI,MCF7 breast,> 100 µM
same,TGI,MDA-N,> 100 µM
same,TGI,ACHN renal,> 100 µM
same,TGI,OVCAR-5 ovarian,> 100 µM
same,TGI,NCI-H460 lung,> 100 µM
same,TGI,MDA-MB-231 breast,> 100 µM
same,TGI,786-0 renal,> 100 µM
same,TGI,OVCAR-4 ovarian,> 100 µM
same,TGI,IGROV1 ovarian,> 100 µM
same,TGI,SR leukemia,> 100 µM
same,TGI,T-47D breast,> 100 µM
same,TGI,U251 CNS,> 100 µM
same,TGI,LOX IMVI melanoma,> 100 µM
same,TGI,NCI/ADR-RES ovarian,> 100 µM
same,TGI,UACC-257 melanoma,> 100 µM
same,TGI,UO-31 renal,> 100 µM
same,TGI,SW-620 colon,> 100 µM
same,TGI,COLO 205 colon,> 100 µM
same,TGI,NCI-H226 lung,> 100 µM
same,TGI,HT29 colon,> 100 µM
same,TGI,MALME-3M melanoma,> 100 µM
same,TGI,MDA-MB-435,> 100 µM
same,TGI,HOP-62 NSCLC,> 100 µM
same,TGI,HS 578T breast,> 100 µM
same,TGI,SNB-19 CNS,> 100 µM
same,TGI,HCC-2998 colon,> 100 µM
same,TGI,HCT-15 colon,> 100 µM
same,TGI,HL-60(TB) leukemia,> 100 µM
same,TGI,NCI-H23 lung,> 100 µM
same,TGI,SF-295 CNS,> 100 µM
same,TGI,MOLT-4 leukemia,> 100 µM
same,TGI,SF-539 CNS,> 100 µM
same,TGI,NCI-H522 lung,> 100 µM
same,TGI,CCRF-CEM leukemia,> 100 µM
COc1ccc(/C=C(\C#N)c2nc3ccccc3c(=O)[nH]2)cc1,TGI,SNB-75 CNS,> 100 µM
same,TGI,SN12C renal,> 100 µM
same,TGI,SK-MEL-28 melanoma,> 100 µM
same,TGI,CAKI-1 renal,80.1 µM
same,TGI,RPMI-8226 leukemia,> 100 µM
same,TGI,BT-549 breast,29.7 µM
same,TGI,HCT-116 colon,19 µM
same,TGI,SK-OV-3 ovarian,23.8 µM
same,TGI,HOP-92 NSCLC,29.3 µM
same,TGI,TK-10 renal,83.8 µM
same,TGI,DU-145 prostate,64.6 µM
same,TGI,RXF 393 renal,32.3 µM
same,TGI,SF-268 CNS,47.2 µM
same,TGI,M14 melanoma,> 100 µM
same,TGI,PC-3 prostate,> 100 µM
same,TGI,SK-MEL-5 melanoma,57.1 µM
same,TGI,KM12 colon,> 100 µM
same,TGI,A549 NSCLC,> 100 µM
same,TGI,SK-MEL-2 melanoma,74.7 µM
same,TGI,K-562 leukemia,> 100 µM
same,TGI,OVCAR-8 ovarian,28.4 µM
same,TGI,EKVX NSCLC,> 100 µM
same,TGI,MCF7 breast,> 100 µM
same,TGI,MDA-N,> 100 µM
same,TGI,ACHN renal,42.3 µM
same,TGI,OVCAR-5 ovarian,> 100 µM
same,TGI,NCI-H460 lung,34.4 µM
same,TGI,MDA-MB-231 breast,19.7 µM
same,TGI,786-0 renal,34.7 µM
same,TGI,OVCAR-4 ovarian,70.3 µM
same,TGI,IGROV1 ovarian,75.1 µM
same,TGI,SR leukemia,> 100 µM
same,TGI,T-47D breast,75.1 µM
same,TGI,U251 CNS,33.9 µM
same,TGI,LOX IMVI melanoma,> 100 µM
same,TGI,NCI/ADR-RES ovarian,90.1 µM
same,TGI,UACC-257 melanoma,> 100 µM
same,TGI,UO-31 renal,72.4 µM
same,TGI,UACC-62 melanoma,> 100 µM
same,TGI,SW-620 colon,> 100 µM
same,TGI,COLO 205 colon,> 100 µM
same,TGI,NCI-H226 lung,84.3 µM
same,TGI,HT29 colon,> 100 µM
same,TGI,MALME-3M melanoma,> 100 µM
same,TGI,MDA-MB-435,> 100 µM
same,TGI,HOP-62 NSCLC,24.1 µM
same,TGI,HS 578T breast,91.6 µM
same,TGI,SNB-19 CNS,28.9 µM
same,TGI,HCC-2998 colon,> 100 µM
same,TGI,HCT-15 colon,> 100 µM
same,TGI,HL-60(TB) leukemia,> 100 µM
same,TGI,SF-295 CNS,52.2 µM
same,TGI,MOLT-4 leukemia,> 100 µM
same,TGI,SF-539 CNS,26.1 µM
same,TGI,NCI-H522 lung,25.2 µM
same,TGI,CCRF-CEM leukemia,> 100 µM
COC(=O)c1c(OC(C)=O)ccc2c1c1c(OC(C)=O)c3ccccc3c(OC(C)=O)c1n2C,TGI,SNB-75 CNS,26.4 µM
same,TGI,SN12C renal,> 100 µM
same,TGI,SK-MEL-28 melanoma,> 100 µM
same,TGI,CAKI-1 renal,60 µM
same,TGI,RPMI-8226 leukemia,47.4 µM
same,TGI,BT-549 breast,57.1 µM
same,TGI,HCT-116 colon,58.9 µM
same,TGI,SK-OV-3 ovarian,52.4 µM
same,TGI,HOP-92 NSCLC,38.7 µM
same,TGI,TK-10 renal,67.8 µM
same,TGI,DU-145 prostate,> 100 µM
same,TGI,RXF 393 renal,> 100 µM
same,TGI,OVCAR-3 ovarian,44.5 µM
same,TGI,SF-268 CNS,77.3 µM
same,TGI,M14 melanoma,99.4 µM
same,TGI,PC-3 prostate,> 100 µM
same,TGI,SK-MEL-5 melanoma,42.1 µM
same,TGI,KM12 colon,51.1 µM
same,TGI,A549 NSCLC,> 100 µM
same,TGI,SK-MEL-2 melanoma,36 µM
same,TGI,K-562 leukemia,43.2 µM
same,TGI,OVCAR-8 ovarian,85.2 µM
same,TGI,EKVX NSCLC,39.2 µM
same,TGI,MCF7 breast,> 100 µM
same,TGI,MDA-N,> 100 µM
same,TGI,ACHN renal,85 µM
same,TGI,OVCAR-5 ovarian,> 100 µM
same,TGI,NCI-H460 lung,> 100 µM
same,TGI,MDA-MB-231 breast,> 100 µM
same,TGI,786-0 renal,94.8 µM
same,TGI,OVCAR-4 ovarian,93.5 µM
same,TGI,IGROV1 ovarian,35.5 µM
same,TGI,SR leukemia,34.5 µM
same,TGI,T-47D breast,50.5 µM
same,TGI,U251 CNS,90.2 µM
same,TGI,NCI/ADR-RES ovarian,> 100 µM
same,TGI,UO-31 renal,> 100 µM
same,TGI,UACC-62 melanoma,49.4 µM
same,TGI,COLO 205 colon,> 100 µM
same,TGI,NCI-H226 lung,> 100 µM
same,TGI,HT29 colon,> 100 µM
same,TGI,MALME-3M melanoma,81.2 µM
same,TGI,MDA-MB-435,> 100 µM
same,TGI,HOP-62 NSCLC,65.1 µM
same,TGI,HS 578T breast,62.5 µM
same,TGI,SNB-19 CNS,> 100 µM
same,TGI,HCC-2998 colon,52.1 µM
same,TGI,HCT-15 colon,> 100 µM
same,TGI,HL-60(TB) leukemia,48.1 µM
same,TGI,NCI-H23 lung,> 100 µM
same,TGI,SF-295 CNS,70.7 µM
same,TGI,MOLT-4 leukemia,39.1 µM
same,TGI,SF-539 CNS,61.7 µM
same,TGI,NCI-H522 lung,28.3 µM
same,TGI,CCRF-CEM leukemia,60.5 µM
